# Values quoted from earlier work in patent US20260165989A1 (Société des Produits Nestlé S.A., priority 2024, published 2026).
# Conditions: counter ion (base) for salt screening
smiles,measurement,value
C[N+](C)(C)CC(=O)O [Betaine],pKa(s)*,12.2
